From patent US4234581A, “Thieno[2,3-d]oxazines” (Mead Johnson & Company, priority 1979, dated 1980)
Where a name gives a salt, the structure may show the parent alone. Read-outs that look alike come from different tables or passages of the source.

Key:
[1] = test system: passive cutaneous anaphylaxis reaction (PCA) in the rat; assay: passive cutaneous anaphylaxis reaction (PCA) in the rat; format: in vivo
Experimental: Activity of test compounds in the passive cutaneous anaphylaxis reaction (PCA) in the rat has been shown in the prior art to correlate with the utility of active compounds in the treatment of immediate hypersensitivity conditions such as asthma. Rat reaginic antiserum is prepared substantially according to the method of Mota, Immunology 7, 681-699 (1964) employing male Sprague-Dawley (Carworth Farms) or Wistar (Harlan) rats weighing 100-175 g. which are injected intramuscularly with a solution of egg albumin in saline at a dose of 10 mg. per kg. and intraperitoneally with 2×10^10 Bordetella pertussis organisms. Twelve days after injection, the serum is collected and the antibody titer is determined. The sera are pooled which contain sufficient antibody to cause a 10 mm. spot in the dorsal skin of the rat in the PCA test after dilution 10 fold. The highest dilution of antiserum capable of inducing PCA in the rat 48 to 72 hrs. after injection is normally in the range of 50-80. The selected reaginic anti-sera are stored frozen until use.
For carrying out the test, groups of 5 to 10 male Sprague-Dawley (Carworth Farms) rats, each rat weighing 100-150 g., are used. Forty-eight hours prior to the test, the animals are passively sensitized by intradermal injection of 0.1 ml. of diluted antiserum at various locations on the shaved skin of the back. A dilution of antiserum is used so that a spot following challenge of 20-25 mm. in diameter is obtained. […] A latent period of 48 hrs. is usually allowed before the animals are challenged. According to the usual screening procedure, 15 min. prior to challenge the test drug is administered either by intraperitoneal injection, intravenous injection, or orally by gavage. Challenge involves an intravenous injection of a dose of 25 mg./kg. of egg albumin and 25 mg./kg. of Evans' blue dye in saline. The dye serves simply as a marker. The response of the antigen challenge in the localities on the skin which have been previously sensitized results in increased capillary permeability at the sensitized site and leakage of the blue dye into the area surrounding the sensitized site. The PCA response is scored by measuring the mean spot diameter on the excised and reversed skin 20-30 min. after challange. In each experiment a group of control animals receiving no drug is employed. The percent inhibition of the PCA is calculated by determining the mean diameters of the spots in the control and treated animals and computing the difference between the squares of the mean diameters of the control animals and the treated animals and expressing this difference as a percentage of the square of the mean diameter of the control animals. Results are expressed as percent inhibition.
Rats may be injected intradermally with 0.1 ml. of a solution containing 1 mg./ml. histamine 10 min. prior to sacrificing. This permits a determination of whether the test compound is exerting an antihistaminic effect on the end organ rather than interfering with mediator release from the mast cells in inhibiting the PCA.
Various doses of test compound in parallel experiments are employed when a dose response curve is to be constructed for quantitative comparison of potencies among active compounds. The ID50, the dose at which 50% inhibition of the PCA occurs, is determined by interpolation. In other modifications, various time intervals are allowed between drug treatment and challenge to ascertain the duration of drug effect.

[2] = test system: passively sensitized rat peritoneal mast cells; assay: antagonism of antigen-induced histamine release from passively sensitized rat peritoneal mast cells; format: cell-based; conditions: in vitro; for IC50: Mast cell, egg albumin antigen challenge
Description: The method employed is similar to that described by Kusner, et al., Journal of Pharmacology and Experimental Therapeutics 184, 41-46 (1973). The test involves isolation of mast cells from the rat by lavage of the peritoneal cavity and isolation of the cellular material from the lavage fluid. The cells are sensitized by shaking in antiserum from rats sensitized as described above with respect to the passive cutaneous anaphylaxis test. The sensitized cells are then exposed to the egg albumin antigen and the release of histamine from the cells is measured by an automated fluorometric method. The inhibition of histamine release by the presence of a test compound during challenge of the sensitized cells is a measure of the activity of the test compound. Dose response curves are prepared employing various concentrations of the test substance and the concentration which inhibits histamine release by 50% (IC50) is determined by interpolation.

[3] = test system: immunologically induced bronchoconstriction; assay: allergic respiratory model in the rat (immunologically induced bronchoconstriction); format: in vivo; conditions: for ED50: 0.25 h, intraduodenal 15 min. prior to egg albumin challenge, half maximal response (ID1/2 max.), table titled Oral
[4] = Acute oral toxicity in the rat; conditions: in vivo
Description: | *Acute oral toxicity in the rat.

[5] = 0.25 h, oral, rat, drug 15 min. prior to challenge, 50% inhibition of PCA, read-out: PCA Response (ID50, mg./kg.)
[6] = range for Procedures 2, 3 and 36, read-out: IC50, inhibition of histamine release
[7] = Rat2, oral, rat, 2 hr. interval between drug dosage and challenge, read-out: PCA Response (ID50, mg./kg.)

O=C(O)c1cc(=O)c2c(OCC(O)COc3cccc4oc(C(=O)O)cc(=O)c34)cccc2o1 [Cromolyn sodium, reference compound]
ED50 ([1]; intravenous, simultaneously with the antigen, rat, read-out: ID50 in the rat PCA test): ~1 mg/kg
activity on oral administration in PCA test ([1]; oral, rat): inactive
IC50 ([2]; read-out: IC50, inhibition of histamine release): 1000 nM
activity on oral administration in allergic respiratory test ([3]; oral): inactive

CCOC(=O)c1nc2sc3c(c2c(=O)[nH]1)CCCC3 [Procedure 2, ETHYL 3,4,5,6,7,8-HEXAHYDRO-4-OXOBENZOTHIENO[2,3-d]PYRIMIDINE-2-CARBOXYLATE]
ED50 [1, 5]: 15.4 mg/kg
LD50 [4]: > 3160 mg/kg
IC50 [2, 6]: 300 to 800 nM
potency in histamine release test relative to cromolyn sodium [2]: substantially more potent than cromolyn sodium
ED50 [3]: 3.8 mg/kg

O=C(O)c1nc2sc3c(c2c(=O)[nH]1)CCCC3 [Procedure 3, 3,4,5,6,7,8-HEXAHYDRO-4-OXOBENZOTHIENO[2,3-d]-PYRIMIDINE-2-CARBOXYLIC ACID DISODIUM SALT DIHYDRATE]
IC50 [2, 6]: 300 to 800 nM
potency in histamine release test relative to cromolyn sodium [2]: substantially more potent than cromolyn sodium

CCOC(=O)c1nc2sc(CC)c(C)c2c(=O)[nH]1 [Procedure 27, ETHYL 6-ETHYL-3,4-DIHYDRO-5-METHYL-4-OXOTHIENO[2,3-d]PYRIMIDINE-2-CARBOXYLATE]
ED50 [1, 5]: 11.4 mg/kg

CCOC(=O)c1nc2sc(CC(C)C)c(C)c2c(=O)[nH]1 [Procedure 28, ETHYL 3,4-DIHYDRO-5-METHYL-6-(2-METHYLPROPYL)-4-OXOTHIENO[2,3-d]PYRIMIDINE-2-CARBOXYLATE]
ED50 [1, 5]: < 5 mg/kg

CCOC(=O)c1nc2sc(CC)cc2c(=O)[nH]1 [Procedure 29, ETHYL 6-ETHYL-3,4-DIHYDRO-4-OXOTHIENO[2,3-d]PYRIMIDINE-2-CARBOXYLATE]
ED50 [1, 5]: 3.1 mg/kg
LD50 [4]: 1600 to 5000 mg/kg
ED50 [3]: 1 mg/kg

CCCCCCc1sc2nc(C(=O)O)[nH]c(=O)c2c1C [Procedure 36, 6-HEXYL-3,4-DIHYDRO-5-METHYL-4-OXOTHIENO[2,3-d]PYRIMIDINE-2-CARBOXYLIC ACID DISODIUM SALT HYDRATE]
ED50 [1, 5]: 15 mg/kg
IC50 [2, 6]: 300 to 800 nM
potency in histamine release test relative to cromolyn sodium [2]: substantially more potent than cromolyn sodium

Cc1c(CC(C)C)sc2nc(C(=O)O)[nH]c(=O)c12 [Procedure 43, 3,4-DIHYDRO-5-METHYL-6-(2-METHYLPROPYL)-4-OXOTHIENO[2,3-d]PYRIMIDINE-2-CARBOXYLIC ACID DISODUM SALT SESQUIHYDRATE]
ED50 [1, 5]: 6.7 mg/kg

CCc1cc2c(=O)[nH]c(C(=O)O)nc2s1 [Procedure 44, 6-ETHYL-3,4-DIHYDRO-4-OXOTHIENO[2,3-d]PYRIMIDINE-2-ARBOXYLIC ACID DISODIUM SALT DIHYDRATE]
ED50 [1, 5]: 13 mg/kg

Cc1c(CC(C)C)sc2nc(CO)[nH]c(=O)c12 [Procedure 53, 2-(HYDROXYMETHYL)-5-METHYL-6-(2-METHYLPROPYL)THIENO[2,3-d]PYRIMIDINE-4-(3H)-ONE]
ED50 [1, 7]: 28 mg/kg

O=c1[nH]c(CO)nc2sc3c(c12)CCCC3 [Procedure 55, 5,6,7,8-TETRAHYDRO-2-(HYDROXYMETHYL)BENZOTHIENO[2,3-d]-4(3H)-PYRIMIDINONE]
ED50 [1, 7]: 34 mg/kg

CCCCCCc1sc2nc(CO)[nH]c(=O)c2c1C [Procedure 56, 6-HEXYL-2-(HYDROXYMETHYL)-5-METHYLTHIENO[2,3-d]PYRIMIDINE-4-(3H)-ONE]
ED50 [1, 5]: 28 mg/kg

CCOC(=O)C(=O)Nc1sccc1C(N)=O [Procedure 83, Ethyl N-[3-(Aminocarbonyl)thien-2-yl]oxamate]
ED50 ([1]; oral, rat, read-out: oral ED50 in the rat PCA test for antiallergic activity): 4.5 mg/kg

Cc1c(CC(C)C)sc2nc(C(=O)O)[nH]c(=O)c12 [Procedure 97, 3,4-Dihydro-5-methyl-6-(2-methylpropyl)-4-oxothieno[2,3-d]pyrimidine-2-carboxylic Acid Dipotassium Salt]
ED50 ([1]; Rattus norvegicus, intravenous, rats, read-out: ID50 in the PCA test, intravenous): 0.14 mg/kg
ED50 ([1]; Rattus norvegicus, oral, rats, read-out: ID50 in the PCA test, oral): 2.7 mg/kg
